Data on six molecules can be found in ChEMBL document CHEMBL5465560, “Selectivity Literature for EUbOPEN Chemogenomic Library” (2024).

Test [1] concerns the target T1, SNF-related serine/threonine-protein kinase (Homo sapiens) (UniProt Q9NRH2).
T1 sequence (whole entry): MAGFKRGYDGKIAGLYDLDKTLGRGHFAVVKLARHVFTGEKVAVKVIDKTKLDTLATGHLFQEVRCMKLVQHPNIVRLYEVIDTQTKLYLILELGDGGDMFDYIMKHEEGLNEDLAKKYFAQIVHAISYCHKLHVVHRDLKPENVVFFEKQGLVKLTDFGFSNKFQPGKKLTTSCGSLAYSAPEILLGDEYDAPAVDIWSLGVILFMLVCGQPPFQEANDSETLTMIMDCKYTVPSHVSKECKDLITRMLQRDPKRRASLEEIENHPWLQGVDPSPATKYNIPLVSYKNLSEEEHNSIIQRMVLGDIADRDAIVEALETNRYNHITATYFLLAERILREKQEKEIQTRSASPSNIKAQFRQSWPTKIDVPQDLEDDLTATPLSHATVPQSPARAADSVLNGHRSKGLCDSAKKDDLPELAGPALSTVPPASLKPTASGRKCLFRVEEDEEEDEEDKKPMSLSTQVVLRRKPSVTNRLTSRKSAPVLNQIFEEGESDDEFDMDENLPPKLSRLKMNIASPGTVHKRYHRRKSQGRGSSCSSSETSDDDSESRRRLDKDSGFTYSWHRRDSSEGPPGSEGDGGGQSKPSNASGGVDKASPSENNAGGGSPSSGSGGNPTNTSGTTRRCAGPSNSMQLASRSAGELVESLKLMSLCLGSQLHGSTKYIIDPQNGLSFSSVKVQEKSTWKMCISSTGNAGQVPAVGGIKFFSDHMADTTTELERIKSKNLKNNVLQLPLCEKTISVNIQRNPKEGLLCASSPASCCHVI
To be noted: at 10 µM.

For test [2], the target named is Focal adhesion kinase 1 (Homo sapiens, UniProt Q05397). The experiment in a line: Selectivity interaction (KinaseProfiler screening (Millipore)) EUB0000601a PTK2. The settings on record: at 3 µM.
The target in test [3] is T2, Serine/threonine-protein kinase DCLK1 (Homo sapiens) (UniProt O15075).
T2 sequence (whole entry): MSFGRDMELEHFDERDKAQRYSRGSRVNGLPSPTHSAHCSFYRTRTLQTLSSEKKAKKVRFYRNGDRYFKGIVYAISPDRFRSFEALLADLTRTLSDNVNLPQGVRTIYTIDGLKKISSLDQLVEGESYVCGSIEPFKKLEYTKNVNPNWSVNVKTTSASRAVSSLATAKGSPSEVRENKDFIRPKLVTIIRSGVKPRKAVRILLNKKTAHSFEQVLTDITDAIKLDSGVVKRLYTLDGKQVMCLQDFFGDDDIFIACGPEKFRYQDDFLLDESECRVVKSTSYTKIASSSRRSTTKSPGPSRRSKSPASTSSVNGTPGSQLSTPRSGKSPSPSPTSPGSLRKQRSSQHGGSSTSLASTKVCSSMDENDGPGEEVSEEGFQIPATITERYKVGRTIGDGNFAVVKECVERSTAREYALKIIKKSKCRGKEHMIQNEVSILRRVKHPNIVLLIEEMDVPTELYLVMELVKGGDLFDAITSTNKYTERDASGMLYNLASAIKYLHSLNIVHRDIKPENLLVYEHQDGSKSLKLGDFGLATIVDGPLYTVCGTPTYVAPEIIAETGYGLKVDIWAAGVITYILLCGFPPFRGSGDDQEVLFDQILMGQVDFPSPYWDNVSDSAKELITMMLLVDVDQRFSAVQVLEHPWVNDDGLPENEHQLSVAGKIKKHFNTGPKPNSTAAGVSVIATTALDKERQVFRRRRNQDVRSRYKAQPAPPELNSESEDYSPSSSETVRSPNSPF
The experiment in a line: Selectivity interaction (KinomeScan (DiscoverX)) EUB0001079a DCLK1. To be noted: at 1 µM.

In test [4] the target is T3, Dual specificity tyrosine-phosphorylation-regulated kinase 3 (Homo sapiens, UniProt O43781).
T3 sequence (O43781 whole entry): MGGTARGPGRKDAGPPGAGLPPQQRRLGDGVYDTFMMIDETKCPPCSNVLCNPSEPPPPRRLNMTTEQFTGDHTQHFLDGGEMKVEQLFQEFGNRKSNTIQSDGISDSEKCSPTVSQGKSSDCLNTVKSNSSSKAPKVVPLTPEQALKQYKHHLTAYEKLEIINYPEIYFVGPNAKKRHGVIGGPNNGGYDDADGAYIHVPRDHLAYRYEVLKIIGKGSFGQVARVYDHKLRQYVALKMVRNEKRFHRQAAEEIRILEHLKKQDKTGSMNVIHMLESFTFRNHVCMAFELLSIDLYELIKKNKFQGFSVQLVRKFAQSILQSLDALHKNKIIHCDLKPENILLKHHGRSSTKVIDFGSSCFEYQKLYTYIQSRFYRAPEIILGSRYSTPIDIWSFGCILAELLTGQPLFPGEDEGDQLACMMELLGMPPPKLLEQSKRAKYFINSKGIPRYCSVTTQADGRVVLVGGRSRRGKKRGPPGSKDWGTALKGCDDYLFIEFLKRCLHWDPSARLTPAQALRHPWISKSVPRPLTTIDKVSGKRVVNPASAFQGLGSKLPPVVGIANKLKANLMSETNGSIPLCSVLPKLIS
The test is described as follows: Selectivity interaction (Enzymatic assay (Eurofins)) EUB0001049a DYRK3.

The target in test [5] is T4, Phosphatidylinositol 5-phosphate 4-kinase type-2 beta (Homo sapiens) (UniProt P78356).
T4 sequence (whole entry): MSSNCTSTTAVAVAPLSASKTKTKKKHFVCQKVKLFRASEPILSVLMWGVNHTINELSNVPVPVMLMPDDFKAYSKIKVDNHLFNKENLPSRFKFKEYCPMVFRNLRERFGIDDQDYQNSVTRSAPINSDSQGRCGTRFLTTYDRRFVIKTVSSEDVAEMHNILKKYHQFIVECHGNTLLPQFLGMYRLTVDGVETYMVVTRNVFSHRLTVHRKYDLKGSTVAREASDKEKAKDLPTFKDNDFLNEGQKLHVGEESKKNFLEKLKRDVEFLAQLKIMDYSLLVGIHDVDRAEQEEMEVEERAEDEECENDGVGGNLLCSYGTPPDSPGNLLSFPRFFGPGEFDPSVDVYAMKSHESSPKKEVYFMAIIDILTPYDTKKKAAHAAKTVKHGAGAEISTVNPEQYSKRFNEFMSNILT
The settings on record: at 10 µM.

Test [6] concerns the target Serine/threonine-protein kinase tousled-like 2 (Homo sapiens) (UniProt Q86UE8). The experiment in a line: Selectivity interaction (KinomeScan (DiscoverX)) EUB0000618a TLK2. To be noted: at 10 µM.

Serine/threonine-protein kinase tousled-like 2 (Homo sapiens), sequence (Q86UE8 whole entry, looked up): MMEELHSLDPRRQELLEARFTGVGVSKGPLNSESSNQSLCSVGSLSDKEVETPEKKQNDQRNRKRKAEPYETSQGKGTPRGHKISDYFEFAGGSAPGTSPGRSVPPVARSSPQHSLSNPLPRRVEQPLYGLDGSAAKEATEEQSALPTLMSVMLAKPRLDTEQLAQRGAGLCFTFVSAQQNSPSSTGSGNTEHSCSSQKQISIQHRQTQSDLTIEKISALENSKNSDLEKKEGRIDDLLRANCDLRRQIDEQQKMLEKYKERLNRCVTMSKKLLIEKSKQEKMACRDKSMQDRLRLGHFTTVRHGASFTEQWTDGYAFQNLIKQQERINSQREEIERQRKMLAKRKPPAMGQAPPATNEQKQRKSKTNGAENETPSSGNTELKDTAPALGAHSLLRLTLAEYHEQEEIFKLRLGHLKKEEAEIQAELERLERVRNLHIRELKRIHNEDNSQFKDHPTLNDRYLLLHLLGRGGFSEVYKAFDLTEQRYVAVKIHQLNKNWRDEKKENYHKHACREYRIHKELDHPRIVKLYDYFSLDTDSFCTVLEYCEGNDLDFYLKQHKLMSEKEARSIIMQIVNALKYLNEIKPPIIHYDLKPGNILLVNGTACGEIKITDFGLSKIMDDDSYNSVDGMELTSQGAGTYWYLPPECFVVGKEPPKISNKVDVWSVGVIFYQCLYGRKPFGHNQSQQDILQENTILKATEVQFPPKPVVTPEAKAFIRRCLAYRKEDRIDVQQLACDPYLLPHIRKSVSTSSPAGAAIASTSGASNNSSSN
Focal adhesion kinase 1, sequence (Q05397 2-1052 limits assumed): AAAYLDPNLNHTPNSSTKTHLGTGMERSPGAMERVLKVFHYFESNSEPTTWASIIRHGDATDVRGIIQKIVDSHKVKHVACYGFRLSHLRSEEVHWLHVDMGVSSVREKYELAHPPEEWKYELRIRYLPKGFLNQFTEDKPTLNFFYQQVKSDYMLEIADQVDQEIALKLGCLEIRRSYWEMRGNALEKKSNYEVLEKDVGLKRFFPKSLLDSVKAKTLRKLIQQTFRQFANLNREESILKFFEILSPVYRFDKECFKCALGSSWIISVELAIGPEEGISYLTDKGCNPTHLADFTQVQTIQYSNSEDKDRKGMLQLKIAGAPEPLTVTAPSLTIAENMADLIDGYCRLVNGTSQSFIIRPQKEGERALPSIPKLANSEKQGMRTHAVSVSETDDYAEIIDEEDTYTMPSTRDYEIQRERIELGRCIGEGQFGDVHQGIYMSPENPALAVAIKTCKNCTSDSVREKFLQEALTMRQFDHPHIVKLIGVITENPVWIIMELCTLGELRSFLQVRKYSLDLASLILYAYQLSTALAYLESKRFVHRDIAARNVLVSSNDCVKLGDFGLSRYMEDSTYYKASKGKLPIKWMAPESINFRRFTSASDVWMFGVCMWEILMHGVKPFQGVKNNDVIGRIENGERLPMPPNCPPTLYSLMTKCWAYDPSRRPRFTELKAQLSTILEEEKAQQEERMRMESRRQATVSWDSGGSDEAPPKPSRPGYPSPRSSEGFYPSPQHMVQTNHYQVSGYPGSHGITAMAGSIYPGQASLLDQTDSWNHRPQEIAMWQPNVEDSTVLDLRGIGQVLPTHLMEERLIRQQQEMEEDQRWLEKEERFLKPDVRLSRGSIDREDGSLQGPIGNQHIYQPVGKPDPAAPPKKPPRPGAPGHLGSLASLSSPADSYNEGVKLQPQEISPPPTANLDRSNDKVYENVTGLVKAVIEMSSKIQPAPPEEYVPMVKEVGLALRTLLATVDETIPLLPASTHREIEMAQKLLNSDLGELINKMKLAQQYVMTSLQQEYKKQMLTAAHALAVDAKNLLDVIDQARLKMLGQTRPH

The molecule `Cc1cc([C@@H](C)Nc2ccccc2C(=O)O)c2nc(N3CCOCC3)cc(=O)n2c1` [AZD-6482] showed a % of control in test [1] of 89%. For `CCc1cc(Nc2nccc(-c3c(-c4ccc(OC)c(C(=O)Nc5c(F)cccc5F)c4)nc4ccccn34)n2)c(OC)cc1N1CCC(N2CCN(S(C)(=O)=O)CC2)CC1`, in test [2], the % of inhibition amounted to 51%. The molecule `Nc1cnc(N2CCc3cc(S(=O)(=O)Nc4c(F)cc(Cl)cc4F)cc(N4CCCC4=O)c32)nc1` [TP-020n] had a % of control in test [3] of 100%. `COc1cc(Nc2nc(C)cc(-c3cnn4nc(OC)ccc34)n2)cc(C(F)(F)F)c1`: in test [4], the 50% inhibitory concentration (IC50) (in general, the concentration at which inhibition is half-maximal) was more than 10 µM.

For `COCC(=O)NC/C=C/c1ccc2ncnc(Nc3ccc(Oc4ccc(C)nc4)c(C)c3)c2c1` [CP-724714], the % of control in test [5] is 100%. Consider `O[C@H]1CC[C@H](Nc2ncc3nc(Nc4c(F)cc(F)cc4F)n([C@H]4CCOC4)c3n2)CC1`, for which the % of control in test [6] was determined as 99%.
